The values below come from US9796696B2, “Substituted arylcyclopentenes as therapeutic agents” (Allergan, Inc., priority 2007, dated 2017).

In data set [1] the target is T1, EP2 (Homo sapiens, UniProt P43116). Briefly: EP2 Ca2+ EC50 (in vitro testing). The format is cell-based. From the text: (§1) U.S. patent application Ser. No. 11/553,143, filed on Oct. 26, 2006, describes the methods used to obtain the in vitro data in the tables below.
In data set [2] the target is T2, EP3 (Homo sapiens, UniProt P43115).
T2 sequence (P43115 1-390): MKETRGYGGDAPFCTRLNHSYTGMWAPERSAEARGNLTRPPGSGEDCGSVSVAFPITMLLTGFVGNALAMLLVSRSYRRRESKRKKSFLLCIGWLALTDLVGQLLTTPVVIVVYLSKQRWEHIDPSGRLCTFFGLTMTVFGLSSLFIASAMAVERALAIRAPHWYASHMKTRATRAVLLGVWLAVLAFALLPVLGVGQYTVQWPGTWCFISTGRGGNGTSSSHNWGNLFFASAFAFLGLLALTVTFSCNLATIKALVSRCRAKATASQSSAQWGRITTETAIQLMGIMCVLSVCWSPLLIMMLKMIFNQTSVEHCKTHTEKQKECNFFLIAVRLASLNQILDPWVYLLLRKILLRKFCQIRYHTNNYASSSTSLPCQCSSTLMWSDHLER
Description: Other receptors Ca2+ EC50: EP3. The format is cell-based. The note with it: NA not defined in the patent.
Source text: as §1

Data set [3] concerns the target T3, EP4 (Homo sapiens, UniProt P35408). Description: EP4 Ca2+ EC50 (in vitro testing). Type of data set: cell-based.
Source text: as §1

Data set [4] has as its target T1, EP2. Briefly: EP2 Ki (in vitro testing). Type of data set: binding.
Source text: as §1

The target in data set [5] is T3, EP4. Briefly: EP4 Ki (in vitro testing). The format is binding. The conditions noted are these: read-out: EP4 Ki EC50.
Source text: as §1

The target of data set [6] is T1, EP2. Briefly: EP2 cAMP EC50 (in vitro testing). Type of data set: cell-based.
Source text: as §1

A short description of data set [7]: In vivo testing, Max. ΔIOP. From the text:
(§2) U.S. Pat. No. 7,091,231 describes the methods used for these in vivo tests.

The nature of data set [8]: In vivo testing, Max. ΔIOP, Max. hyperemia.
Source text: as §2

For data set [9], the target named is T4, DP (Homo sapiens, UniProt Q13258).
T4 sequence (Q13258 1-359): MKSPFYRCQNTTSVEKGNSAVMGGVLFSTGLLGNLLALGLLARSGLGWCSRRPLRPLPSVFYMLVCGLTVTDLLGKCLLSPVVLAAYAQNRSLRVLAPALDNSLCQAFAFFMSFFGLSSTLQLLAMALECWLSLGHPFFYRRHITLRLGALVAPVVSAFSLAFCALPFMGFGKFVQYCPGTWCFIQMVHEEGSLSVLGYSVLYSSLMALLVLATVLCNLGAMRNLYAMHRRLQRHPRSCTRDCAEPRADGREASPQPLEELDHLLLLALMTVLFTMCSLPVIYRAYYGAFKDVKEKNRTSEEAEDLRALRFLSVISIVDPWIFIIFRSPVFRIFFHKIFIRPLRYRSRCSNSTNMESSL
Briefly: Other receptors Ca2+ EC50: DP. The format is cell-based. The conditions noted are these: NA not defined in the patent.
Source text: as §1

A value given as a limit tells only on which side of the number the result lay.

T3 sequence (P35408 whole entry): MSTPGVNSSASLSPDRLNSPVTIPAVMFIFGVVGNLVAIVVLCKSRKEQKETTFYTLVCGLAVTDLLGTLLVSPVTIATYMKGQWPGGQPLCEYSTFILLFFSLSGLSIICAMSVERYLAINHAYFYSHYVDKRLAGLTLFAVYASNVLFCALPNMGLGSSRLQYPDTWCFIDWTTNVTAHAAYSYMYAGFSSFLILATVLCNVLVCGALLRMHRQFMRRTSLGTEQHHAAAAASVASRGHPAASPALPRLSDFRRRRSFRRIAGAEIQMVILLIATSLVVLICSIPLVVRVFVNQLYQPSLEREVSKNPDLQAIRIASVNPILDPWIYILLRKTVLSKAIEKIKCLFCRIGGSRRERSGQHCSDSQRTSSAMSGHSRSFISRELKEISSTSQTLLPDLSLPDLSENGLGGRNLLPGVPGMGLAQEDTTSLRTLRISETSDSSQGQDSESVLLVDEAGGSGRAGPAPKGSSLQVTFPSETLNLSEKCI
T1 sequence (P43116 whole entry): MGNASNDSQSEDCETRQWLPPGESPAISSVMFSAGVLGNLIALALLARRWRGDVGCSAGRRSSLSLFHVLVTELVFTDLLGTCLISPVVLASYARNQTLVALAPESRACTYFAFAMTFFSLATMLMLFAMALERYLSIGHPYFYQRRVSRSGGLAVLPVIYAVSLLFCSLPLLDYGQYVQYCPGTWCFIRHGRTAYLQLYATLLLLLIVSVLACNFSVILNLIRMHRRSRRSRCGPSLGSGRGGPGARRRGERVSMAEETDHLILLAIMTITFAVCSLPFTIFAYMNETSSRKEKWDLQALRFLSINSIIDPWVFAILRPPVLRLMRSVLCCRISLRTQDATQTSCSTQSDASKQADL

For the compound `CCCCC[C@H](O)c1ccc(C2=C(Cl)CC[C@@H]2CCCc2ccc(C(=O)O)s2)cc1`, the EC50 in data set [1] was 355 nM; in data set [2], 1490 nM; in data set [3], greater than 10000 nM; in data set [6], 0.6 nM. The inhibition constant (Ki) in data set [4] turned out to be 16 nM; in data set [5], 3680 nM.

For the compound `CCCCCC(O)c1ccc(C2=C(F)CC[C@@H]2CCCc2ccc(C(=O)O)s2)cc1` (stereo partly drawn), the EC50 in [1] worked out at 27 nM; in [2], 1820 nM; in data set [3] it was 2960 nM; in data set [6], 0.2 nM. Further, the Ki in [4] was 2.4 nM; in [5], greater than 10000 nM.

Consider `CCCCCC(O)c1ccc(C2=C(C#N)CC[C@@H]2CCCc2ccc(C(=O)O)s2)cc1` (stereo partly drawn), for which the EC50 in [2] is 8560 nM; in data set [6] it was 154 nM. Besides, the Ki stood at 1370 nM in data set [4] and 175 nM in data set [5].

For `CCCCC[C@H](O)c1ccc(C2=CCC[C@@H]2CCCc2ccc(C(=O)O)s2)cc1` [Compound 6], the “Max. ΔIOP (%)” value came out at 31% in [7] (Conc. 0.01 g/100 mL) and 32% in data set [8] (Conc. 0.01 g/100 mL). Further, the Max. hyperemia in [8] (Conc. 0.01 g/100 mL) amounted to 2.0.

Take `CCCCCC(O)c1ccc(C2=C(O)C(=O)C[C@@H]2C/C=C\CCCC(=O)O)cc1` (stereo partly drawn) [drawing 82]: the EC50 is 442 nM in data set [1], 9640 nM in data set [2], greater than 10000 nM in data set [3] and 54 nM in data set [6]. The Ki is 313 nM in [4] and 785 nM in data set [5].

For `CCCCCC(O)c1ccc(C2=C(C#N)CC[C@@H]2CCCc2ccc(C(=O)O)s2)cc1` (single isomer, unassigned) [drawing 85], the EC50 in data set [1] was determined as 65 nM; in [2], 202 nM; in data set [3], 3350 nM; in [6] it was 0.4 nM. Also, the figures for the Ki in data set [4] and in data set [5] were 3 nM and 16000 nM, respectively.

As for `CCCCCC(O)c1ccc(C2=C(C#N)CC[C@@H]2CCCc2ccc(C(=O)OCCO)s2)cc1` (stereo partly drawn) [Compound 5], the “Max. ΔIOP (%)” value in [7] (Conc. 0.01 g/100 mL) turned out to be 53%. For the same compound, in data set [8] (Conc. 0.01 g/100 mL), the Max. hyperemia is reported as 1.9 and the “Max. ΔIOP (%)” value is given as 41%.

With `CCCCC[C@@H](O)c1ccc(C2=CCC[C@@H]2CCCc2ccc(C(=O)O)s2)cc1` [Compound 7], in data set [8] (Conc. 0.01 g/100 mL), the Max. hyperemia amounted to 1.8 and the “Max. ΔIOP (%)” value is reported as 37%.

Consider `CCCCCC(O)c1ccc(C2=C(C#N)CC[C@@H]2CCCc2ccc(C(=O)O)s2)cc1` (single isomer, unassigned) [Compound 3], for which the “Max. ΔIOP (%)” value in [7] (Conc. 0.003 g/100 mL) is recorded as 46%. In addition, in data set [8] (Conc. 0.003 g/100 mL), the Max. hyperemia worked out at 1.3 and the “Max. ΔIOP (%)” value amounted to 35%.

With `CCCCCC(O)c1ccc(C2=C(C)CC[C@@H]2CCCc2ccc(C(=O)O)s2)cc1` (stereo partly drawn) [drawing 88], the EC50 in data set [1] came to 193 nM; in [2] it was 7340 nM; in data set [3] it was 955 nM; in data set [6] it was 4 nM. For the same compound, the Ki was 16 nM in data set [4] and greater than 10000 nM in data set [5].

As for `CCCCCC(O)c1ccc(C2=C(C#N)CC[C@@H]2CCCc2ccc(C(=O)O)s2)cc1` (single isomer, unassigned) [Compound 4], the “Max. ΔIOP (%)” value was found to be 39% in data set [7] (Conc. 0.003 g/100 mL) and 35% in data set [8] (Conc. 0.003 g/100 mL). In addition, the Max. hyperemia in data set [8] (Conc. 0.003 g/100 mL) is 1.4.

Turning to `CCCCCC(O)c1ccc(C2=C(C#N)CC[C@@H]2CCCc2ccc(C(=O)O)s2)cc1` (single isomer, unassigned) [drawing 84], the EC50 in [1] is 74 nM; in data set [2], 3540 nM; in [3], 2800 nM; in data set [6] it was 0.45 nM. Also, the Ki was 5 nM in [4] and greater than 10000 nM in data set [5].

In the case of `CCCCCC(O)c1ccc(C2=C(Br)CC[C@@H]2CCCc2ccc(C(=O)O)s2)cc1` (stereo partly drawn) [drawing 79], the EC50 in data set [1] was 403 nM; in data set [2] it was 2340 nM; in data set [3], greater than 10000 nM; in data set [6] it was 0.4 nM. In addition, the values for the Ki in [4] and in [5] were 1.5 nM and 966 nM, respectively.

As to `CCCCCC(O)c1ccc(C2C(Br)=CC[C@@H]2CCCc2ccc(C(=O)O)s2)cc1` (stereo partly drawn) [drawing 83], the EC50 in data set [1] was 847 nM; in data set [2], 3220 nM; in [3], greater than 10000 nM; in data set [6], 0.7 nM. The Ki in data set [4] was 5 nM; in data set [5], 522 nM.

On to `CCCCC[C@@H](O)c1ccc(C2=CCC[C@@H]2CCCc2ccc(C(=O)O)s2)cc1` [drawing 87], for which the EC50 came to 9920 nM in data set [9], 36 nM in data set [1], 5890 nM in data set [2] and 0.8 nM in data set [6]. Further, the figures for the Ki in data set [4] and in data set [5] were 10 nM and 16300 nM, respectively.

For `CCCCCC(O)c1ccc(C2=C(Cl)CC[C@@H]2CCCc2ccc(C(=O)O)s2)cc1` (stereo partly drawn) [Compound 1], in data set [7] (0.1% dose), the “Max. ΔIOP (%)” value is 62 (0.1% dose). Also, in [8] (Conc. 0.01 g/100 mL), the Max. hyperemia came to 1.7 and the “Max. ΔIOP (%)” value worked out at 39%.

For `CCCCCC(O)c1ccc(C2=C(Cl)CC[C@@H]2CCCc2ccc(C(=O)OC(C)C)s2)cc1` (stereo partly drawn) [Compound 2], in [7] (0.1% dose), the “Max. ΔIOP (%)” value amounted to 26%. Also, in data set [8] (Conc. 0.1 g/100 mL), the Max. hyperemia turned out to be 1.7 and the “Max. ΔIOP (%)” value was 21%.

`CCCCCC(O)c1ccc(C2=CCC[C@@H]2CCCc2ccc(C(=O)O)s2)cc1` (stereo partly drawn): the EC50 in [1] was 19 nM; in [3], greater than 10000 nM; in [6] it was 0.9 nM. Also, the results for the Ki in [4] and in data set [5] were 5 nM and 1180 nM, respectively.

For `CCCCC[C@H](O)c1ccc(C2=CCC[C@@H]2CCCc2ccc(C(=O)O)s2)cc1` [drawing 86], the EC50 in [9] worked out at 7740 nM; in data set [1], 27 nM; in data set [2], 3090 nM; in [6], 1 nM. For the same compound, the inhibition constant (Ki) in data set [4] is 18 nM.

Take `CCCCCC(O)c1ccc(C2=C(CO)CC[C@@H]2CCCc2ccc(C(=O)O)s2)cc1` (stereo partly drawn) [drawing 81]: the EC50 in data set [1] is 119 nM; in data set [2] it was 6980 nM; in data set [3] it was greater than 10000 nM; in [6] it was 48 nM. In addition, the Ki in data set [4] worked out at 53 nM; in [5], 1540 nM.

Take `CCCCC[C@@H](O)c1ccc(C2=C(Cl)CC[C@@H]2CCCc2ccc(C(=O)O)s2)cc1`: the EC50 in data set [1] was 83 nM; in data set [3] it was greater than 10000 nM; in [6], 0.2 nM. Further, the Ki stood at 5 nM in data set [4] and 914 nM in data set [5].

Usually EC50 stands for the concentration that produces a half-maximal response. Lower therefore signals an effect from little substance. In general, Ki refers to a dissociation constant, usually derived from enzyme kinetics or from competition with a known ligand.
